# Data reported in patent US20240109914A1, “IMIDAZOTHIAZOLE COMPOUNDS AND ANALOGS THEREOF AND METHODS FOR TREATING NEMATODE INFECTIONS IN PLANTS” (The Governing Council of The University of Toronto, priority 2021, published 2024).
# Like-named read-outs stand apart in the source and are kept apart here.
# Assays:
# tomato plants = assay: Root mass of tomato plants in the soil infectivity assay; settings: 45 μM in soil, 8 weeks
# Procedure: For the infectivity assays, 90 grams of soil (1:1 sand:loam mix) was added to each cell of several 6-cell plastic garden packs. The soil was drenched with 18 mL of deionized water containing dissolved test compound or DMSO alone. 2,500 infective J2 juveniles were then added to the soil in 2 mL of deionized water, for a total water volume of 20 mL. […] The DMSO concentration varied from 0.1% to 0.8% (v/v) depending on the stock concentration of the test compound. The highest DMSO concentration was used as the DMSO control. The J2s were incubated in the soil and chemical for 24 hours, after which two- to three-week old tomato seedlings were transplanted into the soil (one plant per cell). Two replicates were performed for each chemical treatment, and four replicates were done for the DMSO controls. The whole experiment was replicated twice, in two different batches on two different days, for a total of four replicates for each test compound treatment, and eight replicates for the DMSO controls. Inoculated plants were grown for 8 weeks in a greenhouse, as described^47, under long-day conditions (16-h photoperiod) with 26/18° C. day/night temperatures. After 8 weeks, the plants were destructively harvested. The tops were removed and discarded, and roots were gently washed with water to remove adhering soil. Eggs were extracted by placing rinsed roots in 0.6% sodium hypochlorite and agitating at 300 rpm for 3 min. Roots were then rinsed over nested 250—and 25.4-μm sieves, with eggs collected from the latter and suspended in water. Roots were dried in a 65° C. oven for at least 24 hours, after which dry roots were weighed. The number of eggs from each plant root was counted on a dissection microscope using a haemocytometer, and the number of eggs per milligram of root was calculated by dividing the total egg number by the mass of the dried root material. An average was taken across the replicates performed on the same day, and then normalized to the DMSO control average. […] An average percent effectiveness value was then calculated across the two different batches carried out on different days.
# C. elegans = C. elegans dose-response (viability, minimum lethal concentration); assay type: in vivo, Caenorhabditis elegans
# Outline: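 About 25 synchronized L1 worms per well in liquid NGM with HB101 E. coli, compound added immediately (final DMSO 1% v/v), 3 days at 20° C., then viable animals counted. Viability relative to DMSO control, averaged over ≥3 biological replicates; minimum lethal concentration = lowest concentration killing ≥20% of worms.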
# M. hapla eggs = assay: Meloidogyne hapla in vitro egg hatch assay; assay type: in vivo; settings: 45 μM; for Number of Hatched Eggs: 8 days at room temperature, about 90 eggs per well, tested once; for Number of Hatched Eggs z-score: 8 days, z-score vs 8 untreated DMSO wells
# Outline: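 About 90 eggs per well, freed from carrot-root egg masses with 10% bleach for 4 min, were exposed in deionized water to 0.5 μL compound or DMSO. Hatched eggs were counted after 8 days at room temperature without shaking in humid conditions. Each treatment was tested once, with z-scores calculated from 8 untreated DMSO control wells.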
# M. incognita = assay: Meloidogyne incognita infectivity assay (soil, tomato roots); assay type: in vivo; settings: 45 μM in soil, 8 weeks, eggs per mg root relative to DMSO control; for pest or weed control at 45 µM: Meloidogyne incognita, 1344 h, read-out: % effectiveness at inhibiting reproduction of M. incognita
# From the text: An M. incognita population originally collected from grape (Vitis vinifera) in Parlier, California, was used for all experiments, and they were maintained on tomato plants (Solanum lycopersicum ‘Rutgers’) as previously described^47. Infective J2 juveniles were collected as described in ref. 47.
# M. incognita J2 larvae = assay: Meloidogyne incognita in vitro larval mobility assay; assay type: in vivo; settings: 45 μM, 4 days; for Replicate 1 z-score / Replicate 2 z-score: z-score vs untreated DMSO wells; for pest or weed control at 45 µM: Meloidogyne incognita, 96 h
# Outline: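 Infective J2 juveniles of M. incognita Race 1, about 35 per well, were exposed to compound at 45 μM in deionized water with 0.5% DMSO for 4 days at 25° C without shaking. Immobile worms were counted as % of total, averaged over two replicates. A z-score against DMSO control wells was also computed, with z > 1.645 in both replicates marking a hit.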
# Zebrafish = Zebrafish dose-response experiments; assay type: in vivo, Danio rerio; settings: for Zebrafish LC100: lowest concentration at which all of the fish are dead, 45, 15, 5 μM tested
# Procedure: (§1) Zebrafish were maintained and handled under the guidance and approval of the Canadian Council on Animal Care and the Hospital for Sick Children Laboratory Animal Services. Dose-response assays were performed using zebrafish (Danio rerio) at 3 days post-fertilization. Three wild-type (TLAB) embryos were analyzed in each well of a 24-well plate containing 1 mL of E3 medium (5 mM NaCl, 0.17 mM KCl, 0.33 mM CaCl2, 0.33 mM MgSO4). Test compounds were added to each well to reach final concentrations of 45 μM, 15 μM, and 5 μM (0.5% v/v DMSO), as well as a DMSO control well. The viability of the fish was assessed after 3 days of test compound exposure using a Zeiss standard dissection microscope.
# HepG2 cells = assay: HepG2 cell proliferation assay; assay type: cell-based, human
# Procedure: HepG2 cells, which are liver-derived, were counted using a haemocytometer, diluted, and seeded in […] to a final density of 5×10^4 cells/mL in 100 uL of RPMI-1640 medium supplemented with 10% heat inactivated fetal bovine serum (Gibco) and 1.2× Antibiotic-Antimycotic (Gibco). Cells were incubated at 37° C. with 5% CO2 for 24 hours. Subsequently, a 2-fold dilution series of test compound was added to cells at a final volume of 200 uL and incubated at 37° C. with 5% CO2 for 72 hours. After 72 hours, Alamar Blue (Invitrogen) was added to the Hep G2 cells at a final concentration of 0.5× and plates were incubated at 37° C. for 4 hours. Fluorescence was measured at Ex560 nm/Em590 nm and corrected for background from the medium. All assays were performed in technical triplicates and in at least two biological replicates. The IC50 value was defined as the concentration that inhibits cell proliferation by 50% of the untreated control cells.
# M. chitwoodi J2 larvae = assay: Meloidogyne chitwoodi in vitro larval mobility assay; assay type: in vivo; settings: 2 days, average of three replicates; for pest or weed control at 45 µM: Meloidogyne chitwoodi, 48 h, read-out: % Immobile
# Procedure: M. chitwoodi race 1 (the strain commonly found in the pacific northwest of the United States) was used for all experiments, and was maintained on tomato plants (Solanum lycopersicum ‘Rutgers’) as previously described^47. The microwell dose-response experiments were carried out similarly to previously described protocols^44,46. […] The chemicals were tested at 45 μM, and the final concentration of DMSO in each well was 0.5% (v/v). The wells were covered with a plastic adhesive strip, and the lids of the plates were sealed with parafilm. The plates were incubated at 25° C. for 2 days. The percent of worms that were immobile (% immobile) was quantified by counting the number of immobile worms after 2 days of incubation, dividing the number of immobile worms by the total number of worms in the well, and then multiplying by 100. […] The average % immobile value was calculated across the three replicates.
# [1] = Zebrafish dose-response experiments; assay type: in vivo, Danio rerio; settings: TLAB (wild-type), zebrafish (Danio rerio), in vivo; bound inferred from the tested concentrations, 3 days exposure
# Procedure: as §1
# M. chitwoodi = assay: Meloidogyne chitwoodi infectivity assay (soil, tomato roots); assay type: in vivo; settings: 45 μM in soil, 8 weeks, egg counts relative to DMSO control
# Procedure: M. chitwoodi race 1 (the strain commonly found in the pacific northwest of the United States) was used for all experiments, and was maintained on tomato plants (Solanum lycopersicum ‘Rutgers’) as previously described^47. The M. chitwoodi infectivity assays were performed identically to the M. incognita infectivity assays (see above), with the exception that egg counts were not normalized to the mass of the roots. Four technical replicates were performed in a single batch.
# [2] = 72 hours, Alamar Blue, cell proliferation
# [3] = Caenorhabditis elegans, 72 h, L1 worms, 3 days at 20° C., lowest concentration at which at least 20% of worms die, read-out: Minimum Lethal Concentration
# [4] = Caenorhabditis elegans, 72 h, L1 worms, 3 days at 20° C., same values in ppm, read-out: Minimum Lethal Concentration (ppm)
# [5] = average of the two replicates, read-out: Average % Immobile
# [6] = replicate 1, read-out: Replicate 1 % Immobile
# [7] = replicate 2, read-out: Replicate 2 % Immobile
Structure (SMILES),Normalized root mass (relative to DMSO control) (tomato plants),Number of Hatched Eggs (M. hapla eggs),Number of Hatched Eggs z-score (M. hapla eggs),Replicate 1 z-score (M. incognita J2 larvae; replicate 1),Replicate 2 z-score (M. incognita J2 larvae; replicate 2),Zebrafish LC100 (Zebrafish; 3 days exposure),minimal effective concentration (C. elegans; [3]),minimal effective concentration (C. elegans; [4]),pest or weed control at 45 µM (M. incognita),pest or weed control at 45 µM (M. incognita J2 larvae; [5]),pest or weed control at 45 µM (M. incognita J2 larvae; [6]),pest or weed control at 45 µM (M. incognita J2 larvae; [7]),pest or weed control at 45 µM (M. chitwoodi J2 larvae),% effectiveness at inhibiting reproduction of M. chitwoodi (M. chitwoodi),further results
"c1ccc(-c2noc(-c3cccs3)n2)cc1 [tioxazafen, reference compound]",1.09,1,[4.30],[14.82],[21.99],15 µM,–,–,–,–,–,–,–,–,"minimal effective concentration (C. elegans; L1 worms, 3 days at 20° C., lowest concentration at which at least 20% of worms die, read-out: Minimum Lethal Concentration): 3.125 µM; Minimum Lethal Concentration (ppm) (C. elegans; L1 worms, 3 days at 20° C., same values in ppm): 0.7 ppm; times more potent at killing C. elegans than compound I-46 (C. elegans; tioxazafen versus compound I-46, minimum lethal concentration): 32; % effectiveness at inhibiting reproduction of M. incognita (M. incognita): 43.7%; Average % Immobile (M. incognita J2 larvae; average of the two replicates): 100.00%; Replicate 1 % Immobile (M. incognita J2 larvae; replicate 1): 100.00%; Replicate 2 % Immobile (M. incognita J2 larvae; replicate 2): 100.00%; LC50 (Zebrafish; bound inferred from the tested concentrations, 3 days exposure): ≤ 15 µM; times more potent at killing fish than compound I-46 (Zebrafish; tioxazafen versus compound I-46, zebrafish): at least 3; HepG2 IC50 (HepG2 cells; [2]): relatively inactive; IC50 (HepG2 cells; [2]): > 100 µM; % Immobile (M. chitwoodi J2 larvae; 45 μM): 42.7%"
Clc1ccc(-c2cn3ccsc3n2)nc1 [I-46],1.56,–,–,[10.33],[12.18],>45 µM,100 µM,23.6 µg/mL,37.7%,≥ 75%,73.2%,77.1%,56.4%,–,"LC50 at 3 days [1]: > 45 µM; lethality to zebrafish (Zebrafish; concentrations up to 45 μM, the highest concentration tested): non-lethal; IC50 (HepG2 cells; Homo sapiens, HepG2, 72 hours, Alamar Blue, cell proliferation): > 100 µM; HepG2 IC50 (ppm) (HepG2 cells; approximate ppm equivalent of 100 μM): > 23 ppm"
CCc1ccc(-c2cn3ccsc3n2)cc1 [I-7],–,1,[4.30],[10.58],[3.55],–,50 µM,11.4 µg/mL,–,51.9%,74.5%,29.4%,> 75%,59.3%,–
CCc1ccc(-c2cn3cc(C)sc3n2)cc1 [I-10],1.30,–,–,–,–,–,6.25 µM,1.5 µg/mL,18.5%,–,–,–,–,63.7%,–
